Results reported in paper PMC6718478, “A Comprehensive Antimicrobial Activity Evaluation of the Recombinant Microcin J25 Against the Foodborne Pathogens Salmonella and E. coli O157:H7 by Using a Matrix of Conditions” (Frontiers in Microbiology, 2019).
Positions of bridges follow the written chain, without caps; N, C: chain ends. Residues, ends and D or L forms follow the SMILES beside them.

What was measured:
S. Pullorum CVCC1791 = experiment: Antimicrobial activity (killing) curves; format: cell-based, Salmonella Pullorum
Procedure: To further address the activity of recombinant MccJ25, antimicrobial activity curves and Live/Dead viability assay were performed. A single colony of S. Pullorum CVCC1791, S. Typhimurium ATCC14082, and E. coli O157:H7 was inoculated into 5 mL of LB. The culture was then incubated at 37°C with shaking at 200 rpm overnight. The following day, the culture was diluted 1:100 in fresh LB and again incubated at 37°C with shaking at 200 rpm. For antimicrobial activity, the bacteria were grown until they reached log phase. Approximately 5 × 10^4 CFU/mL bacteria were inoculated into 2 mL of LB containing different concentrations of the recombinant MccJ25 (0, 1 × MIC, 2 × MIC, and 4 × MIC). […] The plates were incubated at 37°C overnight to count colony. Colonies were counted to determine CFU/mL. The experiment was conducted with two replicates in three independent trials.

S. Typhimurium ATCC14082 = experiment: Antimicrobial activity (killing) curves; format: cell-based, Salmonella Typhimurium; settings: 4 × MIC; log phase, ~5 × 10^4 CFU/mL in LB, 37°C; plate counts at 0, 2, 4, 6 h; n = 6
Procedure: To further address the activity of recombinant MccJ25, antimicrobial activity curves and Live/Dead viability assay were performed. A single colony of S. Pullorum CVCC1791, S. Typhimurium ATCC14082, and E. coli O157:H7 was inoculated into 5 mL of LB. The culture was then incubated at 37°C with shaking at 200 rpm overnight. The following day, the culture was diluted 1:100 in fresh LB and again incubated at 37°C with shaking at 200 rpm. For antimicrobial activity, the bacteria were grown until they reached log phase. Approximately 5 × 10^4 CFU/mL bacteria were inoculated into 2 mL of LB containing different concentrations of the recombinant MccJ25 (0, 1 × MIC, 2 × MIC, and 4 × MIC). The cultures (0.1 mL) were serially diluted with PBS and plated on LB and TSA agar at 0, 2, 4, and 6 h. The plates were incubated at 37°C overnight to count colony. Colonies were counted to determine CFU/mL. The experiment was conducted with two replicates in three independent trials.

S. Pullorum = experiment: SEM of cell membrane morphology; format: cell-based, Salmonella Pullorum; settings: 1 or 4 × MIC for 1 h at 37°C; ~2 × 10^6 cells
Procedure: To assess the alteration of S. Pullorum cell membrane morphology and ultrastructure, SEM and TEM were performed as described previously, with minor modifications ([Wang et al., 2017]; [Meng et al., 2019]). For SEM sample preparation, approximately 2 × 10^6 S. Pullorum cells were incubated at 37°C for 1 h with the recombinant MccJ25 at 1× and 4 × MIC levels. The control was performed without the recombinant MccJ25. After incubation, the cells were harvested, mixed and centrifuged at 8,000 × g for 3 min. The bacterial pellets were washed three times in PBS and centrifuged at 3,000 × g for 10 min. The bacterial cells were resuspended in 500 μL of PBS and supplemented with 2.5% fresh glutaraldehyde at 4°C overnight. Thereafter, the bacterial pellets were postfixed in 1% osmium tetroxide, dehydrated, and coated with gold-palladium. They were observed by SEM (EVO MA10 XVP, Carl Zeiss).

SMILES: CC[C@H](C)[C@H](NC(=O)CNC(=O)[C@@H](NC(=O)[C@H](Cc1ccccc1)NC(=O)[C@H](Cc1ccc(O)cc1)NC(=O)[C@@H]1CCC(=O)NCC(=O)NCC(=O)N[C@@H](C)C(=O)NCC(=O)N[C@@H](Cc2c[nH]cn2)C(=O)N[C@@H](C(C)C)C(=O)N2CCC[C@H]2C(=O)N1)C(C)C)C(=O)NCC(=O)N[C@H](C(=O)N1CCC[C@H]1C(=O)N[C@H](C(=O)N[C@@H](CO)C(=O)N[C@@H](Cc1ccccc1)C(=O)N[C@@H](Cc1ccc(O)cc1)C(=O)NCC(=O)O)[C@@H](C)CC)[C@@H](C)O [recombinant MccJ25, microcin J25] (GGAGHVPEYFVGIGTPISFYG-OH; lactam N-8 (inferred); C-terminus assumed)
- regrowth in killing curve (S. Pullorum CVCC1791; 1 × MIC, after 8 h of incubation): did not exhibit regrowth
- incubation time after which all bacteria were killed (killing curve) (S. Pullorum CVCC1791; 1 × MIC, log phase, ~5 × 10^4 CFU/mL in LB, 37°C, plate counts, n = 6): 4 h
- incubation time after which the pathogen was eliminated (killing curve) (S. Pullorum CVCC1791; 4 × MIC, log phase, ~5 × 10^4 CFU/mL in LB, 37°C, plate counts at 0, 2, 4, 6 h, n = 6): 6 h
- incubation time after which the pathogen was eliminated (killing curve) (S. Typhimurium ATCC14082): 6 h
- cell membrane morphology by SEM (S. Pullorum): minimal membrane roughening, enlargement, and some filiferous adhesions in a small amount of cells
